Paper PMC9120017, “Inhibition mechanism of the chloride channel TMEM16A by the pore blocker 1PBC” (Nature Communications, 2022)
Read-outs that look alike come from different tables or passages of the source.

Molecular target: T1, wild-type mouse TMEM16A (Mus musculus, UniProt Q8BHY3)
T1 construct: expressed in transfected cells; host or cells: HEK293T
T1 sequence (Q8BHY3 1-960): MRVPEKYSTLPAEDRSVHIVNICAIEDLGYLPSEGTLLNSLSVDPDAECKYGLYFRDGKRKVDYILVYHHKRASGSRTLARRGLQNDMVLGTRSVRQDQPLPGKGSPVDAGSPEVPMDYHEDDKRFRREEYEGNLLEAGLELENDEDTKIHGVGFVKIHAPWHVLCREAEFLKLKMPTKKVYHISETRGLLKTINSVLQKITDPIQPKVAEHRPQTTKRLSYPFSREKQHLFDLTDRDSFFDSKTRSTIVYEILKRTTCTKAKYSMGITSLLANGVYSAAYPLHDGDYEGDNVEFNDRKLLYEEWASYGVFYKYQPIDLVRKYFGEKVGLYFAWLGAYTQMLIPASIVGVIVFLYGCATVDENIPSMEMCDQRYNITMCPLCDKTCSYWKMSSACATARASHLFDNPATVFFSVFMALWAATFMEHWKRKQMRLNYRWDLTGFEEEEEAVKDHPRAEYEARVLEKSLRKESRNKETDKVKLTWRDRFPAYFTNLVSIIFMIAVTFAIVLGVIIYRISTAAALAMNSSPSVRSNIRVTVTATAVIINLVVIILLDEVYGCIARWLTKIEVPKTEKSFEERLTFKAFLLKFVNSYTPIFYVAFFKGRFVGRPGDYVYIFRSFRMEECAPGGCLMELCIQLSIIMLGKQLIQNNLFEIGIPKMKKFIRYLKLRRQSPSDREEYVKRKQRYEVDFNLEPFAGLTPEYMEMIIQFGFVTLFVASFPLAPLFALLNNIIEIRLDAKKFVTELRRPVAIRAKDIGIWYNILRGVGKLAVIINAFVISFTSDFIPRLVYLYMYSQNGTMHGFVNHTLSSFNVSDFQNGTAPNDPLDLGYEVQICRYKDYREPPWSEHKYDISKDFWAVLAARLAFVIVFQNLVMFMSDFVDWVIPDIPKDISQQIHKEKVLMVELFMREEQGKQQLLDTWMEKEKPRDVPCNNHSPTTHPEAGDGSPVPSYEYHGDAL
Assay: Inside-out patch recording of 1PBC block, wild-type TMEM16A
Assay type: cell-based
Method: HEK293T cells (ATCC CRL-1573) were maintained in Dulbecco’s modified Eagle’s medium (DMEM; Sigma-Aldrich) supplemented with 10 U ml^−1 penicillin, 0.1 mg ml^−1 streptomycin (Sigma-Aldrich), 2 mM L-glutamine (Sigma-Aldrich), and 10% FBS (Sigma-Aldrich) in a humidified atmosphere containing 5% CO2 at 37 °C. HEK293S GnTI^− cells (ATCC CRL-3022) were maintained in HyClone HyCell TransFx-H medium (GE Healthcare) supplemented with 10 U ml^−1 penicillin, 0.1 mg ml^−1 streptomycin, 4 mM L-glutamine, 0.15% poloxamer 188 (Sigma-Aldrich), and 1% FBS in an atmosphere containing 5% CO2 at 185 rpm at 37 °C. The ac splice variant of mouse TMEM16A (UniProt ID: Q8BHY3), mouse TMEM16B (UniProt ID: Q8CFW1), or mouse TMEM16F (UniProt ID: Q6P9J9) bearing a 3C cleavage site, a Venus YFP, a Myc tag, and a Streptavidin-binding peptide (SBP) downstream of the open reading frame in a modified pcDNA3.1 vector (Invitrogen) were used as described previously[21],[31]. Mutations were introduced using a modified QuikChange method[58] and were verified by sequencing.
HEK293T cells were transfected with 3–4 μg DNA per 6 cm Petri dish using the calcium phosphate co-precipitation method and were used within 24–96 h after transfection. Recordings were performed on inside-out patches excised from HEK293T cells expressing the construct of interest. Patch pipettes were pulled from borosilicate glass capillaries (O.D. 1.5 mm, I.D. 0.86 mm, Sutter Instrument) and were fire-polished with a microforge (Narishige) before use. Pipette resistance was typically 3–8 MΩ when filled with the recording solutions detailed below. Seal resistance was typically 4 GΩ or higher. Voltage-clamp recordings were made using Axopatch 200B, Digidata 1550, and Clampex 10.7 (Molecular Devices). Analog signals were filtered with the in-built 4-pole Bessel filter at 10 kHz and were digitized at 20 kHz. Solution exchange was achieved using a gravity-fed system through a theta glass pipette mounted on an ultra-fast piezo-driven stepper (Siskiyou). […] All recordings were performed at 20 °C.
A symmetrical ionic condition was used throughout. Stock solution with Ca^2+-EGTA contained 150 mM NaCl, 5.99 mM Ca(OH)2, 5 mM EGTA, and 10 mM HEPES at pH 7.40. Stock solution with EGTA contained 150 mM NaCl, 5 mM EGTA, and 10 mM HEPES at pH 7.40. Free Ca^2+ concentrations were adjusted by mixing the stock solutions at the required ratios calculated using the WEBMAXC program (http://web.stanford.edu/~cpatton/webmaxcS.htm). Patch pipettes were filled with the stock solution with Ca^2+-EGTA, which has a free Ca^2+ concentration of 1 mM. 1PBC (ChemBridge) stock was reconstituted in anhydrous DMSO (Sigma-Aldrich) at 100 mM and stored at −20 °C. Working solutions with 1PBC were prepared by serial dilution. Unless otherwise stated, experiments were performed at a saturating Ca^2+ concentration as shown in Supplementary Table 1 and the primary data were corrected for current rundown as described previously[21],[25].
Concentration-response relations, obtained from the ratio of the I-V plots before and after the application of the blocker, were fitted to the Hill equation,1 I/Imax=1/1+IC50/[blocker]^h where I/Imax is the normalized current responses, IC50 defines the concentration at which inhibition is at its half-maximum, and h is the Hill coefficient.

Steady-state current (normalized) (10 µM 1PBC, -60 mV, 2 µM Ca2+): -0.2628 | remaining activity at 10 µM (10 µM 1PBC, -60 mV, 2 µM Ca2+, read-out: I/Imax): 45.4% | Steady-state current (normalized) (10 µM 1PBC, -80 mV, 2 µM Ca2+): -0.388 | remaining activity at 10 µM (10 µM 1PBC, -80 mV, 2 µM Ca2+, read-out: I/Imax): 50.6% | Steady-state current (normalized) (10 µM 1PBC, -100 mV, 2 µM Ca2+): -0.5211 | remaining activity at 10 µM (10 µM 1PBC, -100 mV, 2 µM Ca2+, read-out: I/Imax): 54.8% | Steady-state current (normalized) (10 µM 1PBC, -120 mV, 2 µM Ca2+): -0.6616 | remaining activity at 10 µM (10 µM 1PBC, -120 mV, 2 µM Ca2+, read-out: I/Imax): 59.1% | Steady-state current (normalized) (10 µM 1PBC, -140 mV, 2 µM Ca2+): -0.7984 | remaining activity at 10 µM (10 µM 1PBC, -140 mV, 2 µM Ca2+, read-out: I/Imax): 62.2% | Steady-state current (normalized) (30 µM 1PBC, 0 mV, 2 µM Ca2+): 0.0002811 | remaining activity at 30 µM (30 µM 1PBC, 0 mV, 2 µM Ca2+, read-out: I/Imax): 11.5% | I/Imax scaled to open probability (30 µM 1PBC, 400 nM Ca2+, 80 mV): 0.04177 | I/Imax scaled to open probability (30 µM 1PBC, 800 nM Ca2+, 80 mV): 0.04061 | I/Imax scaled to open probability (30 µM 1PBC, 2 µM Ca2+, 80 mV): 0.05533 | Steady-state current (normalized) (30 µM 1PBC, 20 mV, 2 µM Ca2+): 0.01874 | remaining activity at 30 µM (30 µM 1PBC, 20 mV, 2 µM Ca2+, read-out: I/Imax): 9.63% | Steady-state current (normalized) (30 µM 1PBC, 40 mV, 2 µM Ca2+): 0.03065 | remaining activity at 30 µM (30 µM 1PBC, 40 mV, 2 µM Ca2+, read-out: I/Imax): 8.13% | Steady-state current (normalized) (30 µM 1PBC, 60 mV, 2 µM Ca2+): 0.03882 | remaining activity at 30 µM (30 µM 1PBC, 60 mV, 2 µM Ca2+, read-out: I/Imax): 7.03% | Steady-state current (normalized) (30 µM 1PBC, 80 mV, 2 µM Ca2+): 0.04513 | remaining activity at 30 µM (30 µM 1PBC, 80 mV, 2 µM Ca2+, read-out: I/Imax): 6.38% | Steady-state current (normalized) (30 µM 1PBC, 100 mV, 2 µM Ca2+): 0.0498 | remaining activity at 30 µM (30 µM 1PBC, 100 mV, 2 µM Ca2+, read-out: I/Imax): 5.86% | Steady-state current (normalized) (30 µM 1PBC, 120 mV, 2 µM Ca2+): 0.05715 | remaining activity at 30 µM (30 µM 1PBC, 120 mV, 2 µM Ca2+, read-out: I/Imax): 5.87% | Steady-state current (normalized) (30 µM 1PBC, 140 mV, 2 µM Ca2+): 0.0661 | remaining activity at 30 µM (30 µM 1PBC, 140 mV, 2 µM Ca2+, read-out: I/Imax): 6.08% | Steady-state current (normalized) (30 µM 1PBC, -20 mV, 2 µM Ca2+): -0.02579 | remaining activity at 30 µM (30 µM 1PBC, -20 mV, 2 µM Ca2+, read-out: I/Imax): 13.4% | Steady-state current (normalized) (30 µM 1PBC, -40 mV, 2 µM Ca2+): -0.06545 | remaining activity at 30 µM (30 µM 1PBC, -40 mV, 2 µM Ca2+, read-out: I/Imax): 16.9% | Steady-state current (normalized) (30 µM 1PBC, -60 mV, 2 µM Ca2+): -0.1171 | remaining activity at 30 µM (30 µM 1PBC, -60 mV, 2 µM Ca2+, read-out: I/Imax): 20.2% | Steady-state current (normalized) (30 µM 1PBC, -80 mV, 2 µM Ca2+): -0.1843 | remaining activity at 30 µM (30 µM 1PBC, -80 mV, 2 µM Ca2+, read-out: I/Imax): 24% | Steady-state current (normalized) (30 µM 1PBC, -100 mV, 2 µM Ca2+): -0.264 | remaining activity at 30 µM (30 µM 1PBC, -100 mV, 2 µM Ca2+, read-out: I/Imax): 27.8% | Steady-state current (normalized) (30 µM 1PBC, -120 mV, 2 µM Ca2+): -0.3545 | remaining activity at 30 µM (30 µM 1PBC, -120 mV, 2 µM Ca2+, read-out: I/Imax): 31.7% | Steady-state current (normalized) (30 µM 1PBC, -140 mV, 2 µM Ca2+): -0.4476 | remaining activity at 30 µM (30 µM 1PBC, -140 mV, 2 µM Ca2+, read-out: I/Imax): 34.8% | Steady-state current (normalized) (100 µM 1PBC, 0 mV, 2 µM Ca2+): 0.0001085 | remaining activity at 100 µM (100 µM 1PBC, 0 mV, 2 µM Ca2+, read-out: I/Imax): 4.44% | I/Imax scaled to open probability (100 µM 1PBC, 400 nM Ca2+, 80 mV): 0.01539 | I/Imax scaled to open probability (100 µM 1PBC, 800 nM Ca2+, 80 mV): 0.01603
Structure (SMILES): N#Cc1c(C(F)(F)F)cc(O)n2c1nc1ccccc12 [1PBC]
